Earlier results, collected in patent US4806659A, “Tannin compounds” (Kabushiki Kaisha Tsumura Juntendo, priority 1985, dated 1989).

Details: known drugs, schizophrenia

Question: For OCCN1CCN(CCCN2c3ccccc3Sc3ccc(C(F)(F)F)cc32)CC1 [fluphenazine], which “anti-hallucination and -delution effects” value is on record?
Answer: strong anti-hallucination and -delution effects

Question: For CN(C)CCCN1c2ccccc2Sc2ccc(Cl)cc21 [chlorpromazine], which sedative effect is on record?
Answer: strong sedative effect

Question: For CCN1CCCC1CNC(=O)c1cc(S(N)(=O)=O)ccc1OC (stereo not drawn) [sulpiride], which sedative effect is on record?
Answer: mild sedative effect

Question: For OCCN1CCN(CCCN2c3ccccc3Sc3ccc(Cl)cc32)CC1 [perphenazine], which “anti-hallucination and -delution effects” value is on record?
Answer: strong anti-hallucination and -delution effects

Question: For COc1ccc2c(c1)N(C[C@H](C)CN(C)C)c1ccccc1S2 [Levomepromazine], which sedative effect is on record?
Answer: strong sedative effect

Question: Which “anti-hallucination and -delution effects” value does the source give for O=C(CCCN1CCC(O)(c2ccc(Cl)cc2)CC1)c1ccc(F)cc1 [haloperidol] here?
Answer: strong anti-hallucination and -delution effects
